Measured values taken from patent publication US20220273678A1 (priority 2020, published 2022).
“Also recorded” adds a separate entry of the source. Read-outs that look alike come from different tables or passages of the source.

What was measured:
SARS-CoV-2 [1] = experiment: microbe, parasite or virus in culture; type: cell-based
SARS-CoV-2 [2] = experiment: SARS-CoV-2 replication in HEK293T-hACE2 cells, flow cytometry; type: cell-based; settings: 100 nM Mito-MES; methanesulfonate
Vero cells = experiment: XTT cell cytotoxicity assay in uninfected Vero cells; type: cell-based, African green monkey; settings: uninfected cultures, 10-1000 nM
Procedure: To measure cell viability to determine if there was any treatment-induced cytotoxicity, cells were plated and treated with drugs as described above. Cells were exposed to the same dilution series created for the in vitro efficacy studies. As above, vehicle-treated cells served as the 0% cytotoxicity control. After 24 h, cell viability was measured on a Synergy 2 Biotek microplate reader (Biotek Inc) via the XTT Cell Proliferation Assay Kit (ATCC® 30-1011K™) according to the manufacturer's protocol. Similar data were obtained in three independent experiments.

cleaved caspase 3 = type: cell-based, African green monkey; settings: Vero, methanesulfonate
icSARS-CoV-2-mNG = type: cell-based, SARS-CoV-2; settings: methanesulfonate
[3] = test system: ACE2, CD147, NRP1 and TMPRSS2; experiment: Host entry factor protein levels in Calu3 cells, flow cytometry; type: cell-based, human; settings: methanesulfonate
SARS-CoV-2 [4] = experiment: Post-exposure prophylaxis in two parents of a household exposed to SARS-CoV-2; type: in vivo, human
Excerpt: FIG. 8-a show the timeline of exposure, symptoms and diagnostic tests in household. Two parents [[…], A1 with history of chronic myelogenous leukemia (CML) and healthy parent 39 years, A2] were notified on Dec. 5, 2020 [defined as day 5 (D5)], that the schoolteacher (T1) of their child (C1) tested positive for SARS-CoV-2 and developed symptoms of Covid-19. C1 had 6-h exposure to T1 on November 30 (with masks) (D0). The family had no other exposure to any other person between November 20-30 (D-10 to D0) given Thanksgiving Day on November 26 (D-4). Several children and parents from the same school class were infected with Covid-19 within the first 2 weeks of December. C1 developed fever (100.4° F.; 38° C.) and fatigue 2.5 days after exposure (D0) that lasted 3 days (D2-D5) and remained asymptomatic since then. The second child (C2) was asymptomatic until D12 when they developed fever (100.4° F.; 38° C.), fatigue and coryza on D12-D14. A1 and A2 started Mito-MES on D4. […]
One important consideration with COVID-19 testing is that it is often unclear how exactly the NP swab was obtained (by healthcare worker or not and whether the posterior or anterior nasopharynx were assessed). […]

[5] = test system: murine coronavirus hepatitis virus A-59 (MHV-A59); experiment: Mouse hepatitis virus A-59 in 17Cl-1 fibroblast cells; type: cell-based; settings: mouse 17C1-1 fibroblast cells, 1000 nM
[6] = cited from earlier work
[7] = mice, doses as high as 230 mg/kg/day; cited from earlier work
[8] = up to 80 mg orally daily, up to one year; methanesulfonate; cited from earlier work

COC1=C(OC)C(=O)C(CCCCCCCCCC[P+](c2ccccc2)(c2ccccc2)c2ccccc2)=C(C)C1=O.CS(=O)(=O)[O-] [Mito-MES, 10-(4,5-dimethoxy-2-methyl-3,6-dioxo-1,4-cyclohexadienyl) decyl triphenylphosphonium methanesulfonate]
reduction of release of progeny virus, TCID50 analysis of cell supernatants (SARS-CoV-2 [1]; Calu3, 100 nM and 1000 nM Mito-MES): > 2 logs | nucleocapsid protein expression, time-of-addition (SARS-CoV-2 [1]; Calu3, 1000 nM Mito-MES): inhibited nucleocapsid protein expression in Calu3 cells when added before infection (effect on viral entry) but also even when added 4 hours after infection | antiviral activity by immunofluorescence and PCR (SARS-CoV-2 [1]; Calu3, 10-1000 nM, methanesulfonate): much more potent in Calu3 cells compared to Vero E6 cells; also recorded: potent antiviral activity against SARS-CoV-2 in Calu3 cells at concentrations as low as 10 nM | Viral replication by flow cytometry at 48 hpi in Calu3 cells (SARS-CoV-2 [1]; DMF 10 μM, Mito-MES 100 nM, Mito-MES 100 nM+DMF 10 μM, […]): 2.4% | Viral replication by flow cytometry at 48 hpi in Calu3 cells (SARS-CoV-2 [1]; Mito-MES 1000 nM, Brusatol 250 nM, Mito-MES 1000 nM+Brusatol 250 nM): 2.9% | IC50 (SARS-CoV-2 [1]; Severe acute respiratory syndrome coronavirus 2, Calu-3, 48 h, read-out: IC50 (FIG. 1-i)): 20 nM | IC50 (SARS-CoV-2 [1]; Severe acute respiratory syndrome coronavirus 2, Calu-3, 72 h, read-out: IC50, % inhibition of viral replication (FIG. 5-c)): 30 nM | viral titers of infected cells vs vehicle control, TCID50-assay (SARS-CoV-2 [1]; […], 10 nM Mito-MES, 10 μM DMF, 100 nM 4F, alone or combined as labelled): reduced viral titers | lowest concentration that resulted in an observable antiviral effect (SARS-CoV-2 [1]; human lung epithelial cells): 10 nM | percent of SARS-CoV-2 infected HEK293T-hACE2 cells, flow cytometry (SARS-CoV-2 [2]): significantly reduced the percent of SARS-CoV-2 infected human non-cancerous HEK293T epithelial cells | cytotoxicity, XTT cell cytotoxicity assay (Vero cells): no observed cytotoxicity | SARS-CoV-2-induced cleavage of caspase 3, immunofluorescence (cleaved caspase 3; Mito-MES 10-1000 nM): reduced SARS-CoV-2-induced increase in cleavage of caspase 3; also recorded: reduced by Mito-MES treatment | percent of infected cells positive for cleaved caspase 3 and MFI of cleaved caspase 3 per cell, flow cytometry (cleaved caspase 3; Mito-MES 100 nM, 4F 10 μM): attenuated SARS-CoV-2-induced increase; also recorded: inhibits or reduces SARS-CoV-2-induced increase | antiviral activity against fluorescent SARS-CoV-2 (icSARS-CoV-2-mNG): potent and similar antiviral activity | protein levels of ACE2, TMPRSS2, NRP1 and CD147 [3]: did not impact; also recorded: Neither SARS-CoV-2 infection nor Mito-MES significantly modulates protein levels | plasma IgG to SARS-CoV-2 S1 protein (SARS-CoV-2 [4]; each parent, three timepoints over 5 weeks): undetectable levels | symptoms and virological / serological confirmation of infection (SARS-CoV-2 [4]; two parents, 20 mg/day oral Mito-MES from D4, 6 weeks): remained asymptomatic and without virological and serological confirmation of infection | anti-MHV-A59 activity [5]: anti-MHV-A59 activity | elimination half-life ([6]; based on post 4 h data): about 14 h | lung tissue penetration ([6]; mice, 4 mg/kg/day): good lung tissue penetration | accumulation in tissues including liver and kidney ([6]; mice, >10 days of oral supplementation): 50 to 700 pmol/g (wet weight) | time of peak plasma concentration ([6]; oral administration): ≤ 1 h | mutagenicity and toxicity [7]: non-mutagenic and non-toxic | safety in humans [8]: safety for up to one year in doses as high as 80 mg orally daily has been validated; also recorded: without any serious adverse events
